#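 These data come from cells grown in 96-well plates and exposed to compound for 48 hours at five concentrations. GI50 = concentration required for 50% inhibition of growth.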 Active and inactive are the calls of the source. Rule as the data show it: active = GI50 up to about 1.1 µM and inactive = higher.
# What was measured:
# Test in all cases: growth of human tumour cells (NCI), 48 h
# [1] = system: MDA-N
# [2] = system: Malme-3M
# [3] = system: HCT-15
# [4] = system: RPMI-8226
# [5] = system: HOP-62
# [6] = system: MDA-MB-231
# [7] = system: HOP-92
# [8] = system: NCI-H522
# [9] = system: MCF7
# [10] = system: PC-3
# [11] = system: NCI/ADR-RES
# [12] = system: Hs-578T
# [13] = system: DU-145
# [14] = system: CCRF-CEM
# [15] = system: T47D
# [16] = system: UACC-62
# [17] = system: MDA-MB-435
# [18] = system: 786-0
# [19] = system: DLD-1
# [20] = system: SNB-78
Compound,GI50 [1],GI50 [2],GI50 [3],GI50 [4],GI50 [5],GI50 [6],GI50 [7],GI50 [8],GI50 [9],GI50 [10],GI50 [11],GI50 [12],GI50 [13],GI50 [14],GI50 [15],GI50 [16],GI50 [17],GI50 [18],GI50 [19],GI50 [20]
COC12OC3(C4OC41)C(C(=O)O[C@H]3CO[Si](C)(C)C(C)(C)C)C2C(=O)Oc1ccccc1 (stereo partly specified),> 100 µM (inactive),92 µM (inactive),> 100 µM,91 µM (inactive),> 100 µM (inactive),57.3 µM (inactive),> 100 µM (inactive),> 100 µM (inactive),> 100 µM (inactive),> 100 µM (inactive),> 100 µM (inactive),> 100 µM (inactive),> 100 µM (inactive),38.1 µM (inactive),> 100 µM (inactive),> 100 µM (inactive),> 100 µM (inactive),> 100 µM (inactive),–,–
Cc1nc2c(nc1Cl)nc(Oc1ccc(Cl)cc1)c1ccccc12,–,74.3 µM (inactive),> 100 µM,> 100 µM (inactive),28.6 µM (inactive),–,–,50.9 µM (inactive),–,–,–,–,–,> 100 µM (inactive),–,48.2 µM (inactive),–,18.6 µM (inactive),49.9 µM (inactive),59.4 µM (inactive)
O=S(O)CCCSSSCCCS(=O)O,–,> 100 µM (inactive),–,–,> 100 µM (inactive),–,–,> 100 µM (inactive),–,–,–,–,–,> 100 µM (inactive),–,> 100 µM (inactive),–,–,> 100 µM (inactive),> 100 µM (inactive)
Cc1nc(N(CCO)CCO)c2sc(=S)n(-c3ccccc3)c2n1,–,> 100 µM (inactive),–,> 100 µM (inactive),> 100 µM (inactive),–,> 100 µM (inactive),> 100 µM (inactive),–,–,–,–,–,> 100 µM (inactive),–,> 100 µM (inactive),–,–,> 100 µM (inactive),–
Cc1nc2ccccc2c(=O)n1CC(=O)O,–,> 100 µM (inactive),> 100 µM,> 100 µM (inactive),> 100 µM (inactive),–,> 100 µM (inactive),> 100 µM (inactive),> 100 µM (inactive),–,> 100 µM (inactive),–,–,> 100 µM (inactive),–,> 100 µM (inactive),–,–,> 100 µM (inactive),> 100 µM (inactive)
Cc1cc(S(=O)(=O)NC2=NCc3nc4ccccc4n32)c(S)cc1Cl,26 µM (inactive),22.5 µM (inactive),24.7 µM,20.3 µM (inactive),–,23.5 µM (inactive),18.7 µM (inactive),34.9 µM (inactive),30.3 µM (inactive),22.2 µM (inactive),19.6 µM (inactive),21.4 µM (inactive),31.2 µM (inactive),31.6 µM (inactive),21.9 µM (inactive),17.1 µM (inactive),28.8 µM (inactive),21 µM (inactive),–,–
O=C1C2c3[nH]c4ccccc4c3C3CCSCC3C2C(=O)N1c1ccccc1 (stereo unspecified),–,> 100 µM (inactive),> 100 µM,> 100 µM (inactive),> 100 µM (inactive),–,> 100 µM (inactive),> 100 µM (inactive),–,–,–,–,–,> 100 µM (inactive),–,> 100 µM (inactive),–,> 100 µM (inactive),> 100 µM (inactive),> 100 µM (inactive)
O=C1CCCCCCCCCCOC(=O)CCCCCCCCCCO1,–,> 100 µM (inactive),> 100 µM,–,> 100 µM (inactive),–,> 100 µM (inactive),> 100 µM (inactive),–,–,–,–,–,> 100 µM (inactive),–,> 100 µM (inactive),–,> 100 µM (inactive),> 100 µM (inactive),> 100 µM (inactive)
O=C(c1ccccc1)c1cc(Cl)ccc1NCn1nnc2ccccc21,–,–,42.8 µM,41.6 µM (inactive),> 100 µM (inactive),–,91.4 µM (inactive),47.8 µM (inactive),–,–,–,–,–,77.4 µM (inactive),–,> 100 µM (inactive),–,> 100 µM (inactive),> 100 µM (inactive),–
CC(=O)O[C@H]1CC[C@@]2(C)[C@H](CC[C@@H]3[C@@H]2CC[C@]2(C)[C@@H](c4ccc(=O)oc4)C[C@H]4O[C@]342)C1,–,0.571 µM (active),1.08 µM,0.664 µM (active),0.521 µM (active),–,0.92 µM (active),0.327 µM (active),1.27 µM (inactive),–,0.518 µM (active),–,–,0.392 µM (active),–,1.05 µM (active),–,–,0.354 µM (active),0.404 µM (active)
C=C1CC(OC)(C(OC)C(=O)N[C@H]2OCO[C@H]3C2O[C@H](C[C@@H](COC)OC)C(C)(C)C3OC)O[C@H](C)[C@@H]1C (stereo partly specified),–,–,0.8 µM,0.111 µM (active),1.04 µM (active),–,0.521 µM (active),–,1.4 µM (inactive),–,2.78 µM (inactive),–,–,0.21 µM (active),–,1.01 µM (active),–,–,0.805 µM (active),1.11 µM (active)
CC(=O)NC1=C(C)C(=O)c2c(nc3n2CCC3OC(=O)c2ccccc2)C1=O (stereo unspecified),–,1.64 µM (inactive),–,2.04 µM (inactive),2.34 µM (inactive),–,1.9 µM (inactive),2.04 µM (inactive),–,–,–,–,–,1.19 µM (inactive),–,1.92 µM (inactive),–,4.3 µM (inactive),1.81 µM (inactive),2.71 µM (inactive)
C=C(/C=C/C=C(/CCC=C(C)C)COC(C)=O)[C@@H]1CC[C@]2([C@H](CCCO)/C(=C(/C)C=O)CC[C@]2(C)O)[C@@H]1O,–,0.0429 µM (active),14.5 µM,–,–,–,< 0.01 µM (active),17.1 µM (inactive),–,–,–,–,–,1.86 µM (inactive),–,–,–,–,11.9 µM (inactive),> 10 µM (inactive)
CC12CCC3C(CCC4CC(OC(=O)Cc5ccc(N(CCCl)CCCl)cc5)CCC43C)C1CCC(=O)N2 (stereo unspecified),–,18.2 µM (inactive),14.7 µM,15.2 µM (inactive),–,–,16.1 µM (inactive),14.7 µM (inactive),–,–,–,–,–,6.25 µM (inactive),–,–,–,15.5 µM (inactive),18.7 µM (inactive),24.4 µM (inactive)
Cc1c(Cc2ccccc2)n(COCCCO)c(=O)[nH]c1=O,> 100 µM (inactive),> 100 µM (inactive),> 100 µM,> 100 µM (inactive),> 100 µM (inactive),> 100 µM (inactive),> 100 µM (inactive),> 100 µM (inactive),> 100 µM (inactive),> 100 µM (inactive),> 100 µM (inactive),> 100 µM (inactive),> 100 µM (inactive),> 100 µM (inactive),> 100 µM (inactive),> 100 µM (inactive),> 100 µM (inactive),> 100 µM (inactive),–,–
C[N+]1(C)CN(c2ccccc2)C2(CCN(CCCC(=O)c3cccs3)CC2)C1=O,> 100 µM (inactive),> 100 µM (inactive),56.4 µM,47.3 µM (inactive),33.4 µM (inactive),72.6 µM (inactive),35.7 µM (inactive),> 100 µM (inactive),53.8 µM (inactive),> 100 µM (inactive),> 100 µM (inactive),53.7 µM (inactive),> 100 µM (inactive),68.4 µM (inactive),> 100 µM (inactive),> 100 µM (inactive),> 100 µM (inactive),> 100 µM (inactive),–,–
